Assay results as given in the supplement of paper PMC5908809.

Tests used:
[1] = test system: normal NK cells expanded with K562-aAPC; experiment: drug sensitivity score (DSS) (DSS units); higher = more sensitive; extreme values may be limits of the assay; conditions: 72 h; IL-2 2.5 ng/mL
Experimental: (§1)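 Drug sensitivity and resistance testing on K562-aAPC-expanded normal NK cells: 5 concentrations (10-fold steps over a 10,000-fold range), 72 h at 37 °C, viability by CellTiter-Glo normalised to DMSO and benzethonium chloride controls; DSS from the fitted curve.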

[2] = test system: YT (IL-2 2.5 ng/mL); experiment: as above; conditions: 72 h
[3] = test system: normal primary NK cells, pool 3 (3 donors) (IL-2 2.5 ng/mL); experiment: as above; conditions: 72 h
[4] = test system: KAI3 (IL-2 2.5 ng/mL); experiment: as above; conditions: 72 h
[5] = test system: normal primary NK cells, pool 2 (3 donors) (IL-2 2.5 ng/mL); experiment: as above; conditions: 72 h
[6] = test system: NKL (IL-2 2.5 ng/mL); experiment: as above; conditions: 72 h
[7] = test system: NK-92 (IL-2 2.5 ng/mL); experiment: as above; conditions: 72 h
[8] = test system: IMC-1 (IL-2 20 ng/mL); experiment: as above; conditions: 72 h
[9] = test system: NK-YS (IL-2 2.5 ng/mL); experiment: as above; conditions: 72 h
[10] = test system: SNK-6 (IL-2 2.5 ng/mL); experiment: as above; conditions: 72 h
[11] = test system: KHYG-1 (IL-2 2.5 ng/mL); experiment: as above; conditions: 72 h
[12] = test system: normal primary NK cells, pool 1 (3 donors), resting (IL-2 0 ng/mL); experiment: as above; conditions: 72 h
[13] = test system: DERL-7 (IL-2 2.5 ng/mL); experiment: as above; conditions: 72 h
[14] = test system: normal primary NK cells, pool 1 (3 donors) (IL-2 2.5 ng/mL); experiment: as above; conditions: 72 h
[15] = test system: normal NK cells expanded with K562-aAPC; experiment: percent inhibition of viability; higher = more inhibition; conditions: 72 h, IL-2 2.5 ng/mL
Experimental: as §1

[16] = test system: YT (IL-2 2.5 ng/mL); experiment: as above; conditions: 72 h
[17] = test system: normal primary NK cells, pool 3 (3 donors) (IL-2 2.5 ng/mL); experiment: as above; conditions: 72 h
[18] = test system: KAI3 (IL-2 2.5 ng/mL); experiment: as above; conditions: 72 h
[19] = test system: normal primary NK cells, pool 2 (3 donors) (IL-2 2.5 ng/mL); experiment: as above; conditions: 72 h
[20] = test system: NKL (IL-2 2.5 ng/mL); experiment: as above; conditions: 72 h
[21] = test system: NK-92 (IL-2 2.5 ng/mL); experiment: as above; conditions: 72 h
[22] = test system: IMC-1 (IL-2 20 ng/mL); experiment: as above; conditions: 72 h
[23] = test system: NK-YS (IL-2 2.5 ng/mL); experiment: as above; conditions: 72 h
[24] = test system: SNK-6 (IL-2 2.5 ng/mL); experiment: as above; conditions: 72 h
[25] = test system: KHYG-1 (IL-2 2.5 ng/mL); experiment: as above; conditions: 72 h
[26] = test system: normal primary NK cells, pool 1 (3 donors), resting (IL-2 0 ng/mL); experiment: as above; conditions: 72 h
[27] = test system: DERL-7 (IL-2 2.5 ng/mL); experiment: as above; conditions: 72 h
[28] = test system: normal primary NK cells, pool 1 (3 donors) (IL-2 2.5 ng/mL); experiment: as above; conditions: 72 h

NC(=O)c1cccc2cn(-c3ccc([C@@H]4CCCNC4)cc3)nc12 [Niraparib] (max concentration tested 10000 nM)
Conditions | drug sensitivity score
[1] | 3.36
[2] | 1.42
[3] | 0
[4] | 7.35
[5] | 0
[6] | 16
[7] | 7.65
[8] | 8.2
[9] | 9.06
[10] | 4.87
[11] | 6.89
[12] | 0
[13] | 5.15
[14] | 0

percent inhibition of viability [%]
Conditions | 1 nM | 10 nM | 100 nM | 1000 nM | 10000 nM
[15] | 0.08 | 1.98 | 2.28 | 18.1 | 32.5
[16] | -0.31 | 5.58 | -0.5 | -2.07 | 34
[17] | -3.37 | -7.45 | 1.14 | -2 | 0.09
[18] | -1.88 | 8.15 | 4.77 | 19.1 | 78.8
[19] | -5.25 | -5.29 | 0.44 | -5.11 | 2.06
[20] | -9.92 | 5.83 | 22.1 | 72.4 | 82.9
[21] | 4.26 | 12 | 8.71 | 15.1 | 92.8
[22] | -4.38 | 1.54 | 3.53 | 17.8 | 95.6
[23] | -10.5 | -0.47 | -4.5 | 25.4 | 94.5
[24] | -11.2 | -10.2 | 1.34 | 0.26 | 86.7
[25] | -5.84 | 6.09 | -1.02 | 10.6 | 92.7
[26] | 1.46 | -12.9 | -7.56 | -30.2 | -19.6
[27] | 0.54 | 3.15 | 0.76 | 8.32 | 68.3
[28] | 6.04 | -0.22 | -4.85 | -8.51 | -4.48

O=C(c1cc(Cc2n[nH]c(=O)c3ccccc23)ccc1F)N1CCN(C(=O)C2CC2)CC1 [Olaparib] (max concentration tested 10000 nM)
Conditions | drug sensitivity score
[1] | 3.25
[2] | 1.37
[3] | 0.4
[4] | 7.15
[5] | 0.48
[6] | 14.5
[7] | 7.35
[8] | 4.75
[9] | 8.28
[10] | 8.04
[11] | 5.78
[12] | 0.22
[13] | 1.54
[14] | 0

percent inhibition of viability [%]
Conditions | 1 nM | 10 nM | 100 nM | 1000 nM | 10000 nM
[15] | 5.19 | 4.79 | 5.47 | 7.88 | 39.6
[16] | 4.35 | 1.35 | 5.37 | 3.91 | 22.8
[17] | -7.91 | -1.82 | -4.22 | 3.8 | 13.5
[18] | 0.33 | 3.77 | 9.9 | 28.6 | 72.2
[19] | -7.93 | -9.67 | -11 | 2.31 | 15.4
[20] | 0.33 | 9.8 | 27.9 | 57.2 | 80.5
[21] | 4.94 | 9.54 | 8.93 | 21.5 | 79.2
[22] | 2.29 | 1.77 | 7.69 | 13.7 | 53.5
[23] | -6.43 | -6.57 | 3.49 | 20.7 | 90.7
[24] | 1.96 | -1.75 | -10.2 | 19.4 | 89.5
[25] | -5.18 | -5.25 | 0.38 | 10.5 | 72.6
[26] | -10.9 | 1.92 | -9.9 | -1.32 | 15.6
[27] | -1.68 | 4.77 | -8.94 | 1.1 | 31.5
[28] | 3.22 | 7.12 | -3.15 | 3.31 | 8.24

COc1cc2ncnc(Nc3ccc(F)c(Cl)c3)c2cc1NC(=O)/C=C/CN1CCCCC1 [Dacomitinib] (max concentration tested 1000 nM)
Conditions | drug sensitivity score
[1] | 2.02
[2] | 0
[3] | 0.2
[4] | 2.88
[5] | 1.25
[6] | 8.95
[7] | 0.79
[8] | 0.74
[9] | 1.38
[10] | 0.98
[11] | 0
[12] | 2.49
[13] | 1.45
[14] | 0.77

percent inhibition of viability [%]
Conditions | 0.1 nM | 1 nM | 10 nM | 100 nM | 1000 nM
[15] | 4.92 | 5.66 | 5.66 | 10.2 | 29.5
[16] | 5.15 | 4.77 | 7.83 | 2.51 | 14.2
[17] | 0.64 | 1.31 | -1.6 | -10.6 | 17.6
[18] | 7.94 | 10.2 | 11.4 | 7.46 | 31.4
[19] | -2.98 | -1.98 | 1.99 | -4.15 | 33
[20] | 3.41 | 22.9 | 21.4 | 24.5 | 43.9
[21] | 14.8 | 4.75 | 15.7 | -7.18 | 27.1
[22] | 9.55 | 7.6 | 11.6 | 10.1 | 13.4
[23] | 7.35 | 1.97 | 10.7 | 6.81 | 23.5
[24] | 6.36 | -3.37 | 6.76 | 1.63 | 22.4
[25] | 10.5 | 10.2 | 7.74 | 5.43 | 16.9
[26] | 4.51 | -7.96 | 0.41 | -14.9 | 59.7
[27] | -5.58 | -2.85 | -0.73 | -3.8 | 35.9
[28] | 2.94 | -9.71 | -7.32 | -13.9 | 28.8

CN1CCN(CCOc2cc(OC3CCOCC3)c3c(Nc4c(Cl)ccc5c4OCO5)ncnc3c2)CC1 [Saracatinib] (max concentration tested 10000 nM)
Conditions | drug sensitivity score
[1] | 6.3
[2] | 7.37
[3] | 0
[4] | 4.31
[5] | 0
[6] | 2.2
[7] | 6.22
[8] | 5.54
[9] | 3.64
[10] | 0.27
[11] | 4.35
[12] | 7.66
[13] | 6.92
[14] | 2.04

percent inhibition of viability [%]
Conditions | 1 nM | 10 nM | 100 nM | 1000 nM | 10000 nM
[15] | -1.72 | -3.19 | 2.46 | 6.91 | 94.3
[16] | -2.96 | -2.67 | -0.94 | 26.4 | 68.2
[17] | -6.07 | 9.22 | 9.63 | -17.2 | 0.69
[18] | -1.92 | -9.84 | -6.46 | 7.42 | 56.8
[19] | -0.71 | -2.6 | 6.1 | -10.6 | 9.82
[20] | -14.8 | -18.5 | -9.99 | -5.02 | 48.9
[21] | -2.32 | 4.14 | 9.55 | 18.4 | 68.4
[22] | -4.77 | -2.25 | -2.36 | -0.89 | 100
[23] | -1.8 | -3.94 | -0.18 | 5.62 | 51.1
[24] | -3.28 | -15.1 | -18 | -41.3 | 21.7
[25] | -5.13 | -8 | -4.22 | 0.25 | 77.8
[26] | -9.8 | 15.2 | 16.2 | 24 | 85.8
[27] | -0.15 | 1.98 | 7.09 | 17.7 | 74.7
[28] | -9.24 | 11.2 | 7.65 | -4.55 | 45.9

COc1cc2c(cc1-c1c(C)noc1C)ncc1[nH]c(=O)n([C@H](C)c3ccccn3)c12 [I-BET151] (max concentration tested 10000 nM)
Conditions | drug sensitivity score
[1] | 6.57
[2] | 8.36
[3] | 6.22
[4] | 7.74
[5] | 8.63
[6] | 12.4
[7] | 1.57
[8] | 6.36
[9] | 11.1
[10] | 16.1
[11] | 14.1
[12] | 7.37
[13] | 17.4
[14] | 9.37

percent inhibition of viability [%]
Conditions | 1 nM | 10 nM | 100 nM | 1000 nM | 10000 nM
[15] | -4.2 | -5.61 | -3.72 | 17.1 | 70.7
[16] | -4.09 | -3.54 | -0.4 | 36.2 | 69.4
[17] | 0.13 | -4.21 | 7.82 | 12.9 | 73.7
[18] | -1.82 | -7.24 | -5.5 | 36.7 | 60.8
[19] | -6.96 | -4.14 | 1.63 | 30.1 | 81.5
[20] | -4.89 | -7.31 | 11.6 | 58.9 | 75
[21] | -10.1 | -10.2 | -33.2 | -7 | 39.9
[22] | -10.4 | -6.13 | -13.8 | 11.4 | 80.4
[23] | -6.04 | 0.41 | 9.82 | 50.3 | 86
[24] | -9.22 | -7.3 | 19.2 | 71.4 | 58.4
[25] | -6.56 | -3.86 | 2.8 | 72 | 98.6
[26] | 11.1 | 15.2 | 12.9 | 26.3 | 69
[27] | -3.21 | -1.77 | 20 | 81.5 | 100
[28] | 4.94 | 14.1 | 16.8 | 34.1 | 86.3
